Measurements published in a melting point compilation (Tetko et al.; mined from patent text by program, amines drawn as free bases though some values may be those of a salt).

melting point [°C]	SMILES
210 to 211	CC(C)(C)c1ccc2oc(C(=O)COc3ccc(C(=O)O)cc3)cc2c1
90 to 91	O=C(/C=C/c1cccc(F)c1)NC1CC1
84 to 85	CCOCCNC(=O)c1ccc(CN2C(=O)C3(COc4cc5c(cc43)CCO5)c3ccccc32)cc1 (stereo unspecified)
106 to 107	Cc1cc(C)c2c(C)coc2c1Cc1ccc(C(C)C)cc1
64 to 66	C=C(C)c1cccc(-n2c(C(F)(F)F)nn(C)c2=S)c1
211 to 212	CN(C(=O)c1cc2ccccc2s1)c1ccc(N2CCC(O)CC2)c(C#N)c1
174 to 176	O=C(O)c1ccccc1-c1cc(-c2ccc(Cl)cc2)on1
210	O=C(O)C#Cc1ccc(-c2ccc(Cl)cc2)cn1
169 to 170	Cc1cccc(CC(NC(=O)C(c2ccccc2)c2ccccc2)C(=O)NC(C#N)CCOc2cccc(C(=O)O)c2)c1 (stereo unspecified)
132 to 134	COC(=O)c1ccc(C(=O)OC)c(S(=O)(=O)NC(C)(C)C)c1
143 to 144	CN(C)CCNC(=O)c1nc(N)sc1-c1ccccn1
177 to 178	CCCN(CCC)C(=O)Cn1c(=O)[nH]c2cnc(-c3ccc(Cl)cc3)nc21
94 to 95	CCC1(CO)COC(C(C)(C)Oc2ccc(Cl)cc2)=N1 (stereo unspecified)
167 to 169	CON(C)C(=O)Nc1c(C(=O)c2cccc(Cl)c2)[nH]c2cc(Cl)ccc12
235 to 238	CC(=O)Nc1ccc(C=NNC(N)=S)cc1Cl
96 to 97	CCCCCCCCCCCCOc1ccc2cc(C(C)C(=O)O)ccc2c1 (stereo unspecified)
114 to 116	O=C(Nc1c(OCc2ccccc2)cccc1C(=O)O)c1ccccc1
80 to 83	Cc1cc(Oc2ccc([N+](=O)[O-])c(F)c2)n[nH]1
193 to 196	O=C1c2c(O)ccc(O)c2C(=O)c2c(NCCN3CCCC3)ccc(NCCN3CCCC3)c21
145 to 146	Cc1ccccc1-c1nc(-c2ccccc2)c[nH]1
> 200	N#Cc1cc(-c2ccc(Cl)c(Cl)c2)[nH]c1Cl

melting point [°C]	SMILES
67 to 68	CCCCCCCCCCCN=C1SC(=CC(=O)O)C(=O)N1CCCCCCCCCCC
176 to 178	COc1ccc(S(=O)(=O)C2(C(=O)NO)CCN(Cc3ccc(F)cc3)CC2)cc1
209 to 210	Cc1cc(N2N=CCNC2=O)cc(Cl)c1Cc1ccc(Cl)cc1
189 to 192	NC(=O)Cc1c[nH]c2cc(OCc3ccccc3)ccc12
142 to 143	CC(C)c1cccc(-c2ccc(F)cc2)c1/C=C/COc1ccc(C(=O)C(=O)O)cc1
72	CC(NC(=O)C(CS)C(C)c1ccc(O)cc1)C(=O)O (stereo unspecified)
163 to 165	CCOCc1nc2c(N)nc3c(c2n1NCCCNC(=O)C(C)C)CCCC3
139 to 141	CCOC(=O)NNc1cccc(Cl)n1
90	CC(=O)N1CC(Cc2ccccc2)OC1=O (stereo unspecified)
154 to 155	C=CCOc1cc(C=CC(=O)O)ccc1OC(C)=O
142 to 143	CCCN(CCC)C(=O)CNc1nc(-c2ccccc2)ncc1[N+](=O)[O-]
71.5	CCOC(=O)c1ccc(/C=C(\C)c2ccc(OC)c(C(C)(C)C)c2)cc1
243 to 245	COc1ccc2c(c1OC)CC[C@@H]1NC(=O)CC[C@H]21 (relative stereo)
125 to 127	S=C1Nc2ccccc2N2CCN(Cc3ccccc3)CCN12
239 to 241	Cc1ccnc2c1N(O)C(=O)c1cccnc1N2C1CC1
250	O=C(O)c1cccc(NC(=O)N2CCc3cc(S(=O)(=O)N4CCN(c5cccc(Cl)c5)CC4)ccc32)c1
100 to 101	CNCCON=C1c2ccccc2C2CC2c2ccccc21 (stereo unspecified)
134	CCOC(=O)COc1cc(-c2ccc(C)cc2)nc2cccc(C(F)(F)F)c12
241 to 242	O=C(O)c1ccc(Cn2nnc(-c3cccc(I)c3)n2)cc1
94.5 to 96	COc1ccc(/C=C(\C#N)c2c(F)c(F)c(F)c(F)c2F)cc1OC1CCCC1
